What all share (assay): DTP human tumour cell line panel, 48 h
The test system of experiment [1] is BT-549 breast.
Experiment [2] has as its system DU-145 prostate.
For experiment [3], the system named is HCT-15 colon.
Experiment [4] concerns HL-60(TB) leukemia.
Experiment [5] has as its system HOP-62 NSCLC.
Experiment [6] deals with HT29 colon.
In experiment [7] the test system is NCI/ADR-RES ovarian.
Experiment [8] concerns OVCAR-3 ovarian.
Experiment [9] relates to T-47D breast.
Experiment [10] deals with U251 CNS.

Several values for one entry are separate records, joined by “and”; a condition that tells them apart may be missing. Identical values can stand only once.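 Interpolation was linear, between the two tested concentrations surrounding the appropriate level; five concentrations were tested over 48 hours in 96-well plates. GI50: concentration for 50% inhibition of growth. TGI: total growth inhibition.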

On to `NC(N)=N/N=C/c1c(-c2ccsc2)nc2sccn12`, for which the GI50 in [1] was 22.3 µM; in experiment [2], 16.4 µM; in [3] it was 17.1 µM; in [4] it was 16.3 µM; in experiment [5], 14.3 µM; in [6] it was 11.6 µM. For the same compound, the GI50 is 16.9 µM in experiment [7], 8.8 µM in [8], 16.8 µM in experiment [9] and 15.8 µM in [10]. Moreover, the TGI in experiment [1] worked out at 38.1 µM; in experiment [2], 31.4 µM; in experiment [3], 31.7 µM; in [4], 56.4 µM; in experiment [5], 27.4 µM; in [6] it was 25.3 µM. Also, the total growth inhibition concentration (TGI) in experiment [7] came to 32.7 µM; in experiment [8], 21.2 µM; in [9], 31.9 µM; in experiment [10] it was 30 µM.

Consider `Cc1cc(Nc2ccc(NC(=O)c3ccc(Nc4ccnc5ccccc45)cc3)cc2)nc(N)n1`, for which the GI50 in experiment [1] is 2.25 µM; in experiment [2], 2.03 µM; in experiment [3] it was 6.16 µM; in experiment [4], 7.31 µM; in experiment [7] it was > 100 µM; in experiment [8], 1.43 µM. Besides, the TGI in experiment [1] is 5.74 µM; in [2] it was 5.16 µM; in [3] it was > 100 µM; in experiment [4], > 100 µM; in [7], > 100 µM; in experiment [8], 4.26 µM.

With `CNCc1ccccc1-c1csc([C@@H](C)Nc2nc(C)nc3cc(OC)c(OC)cc23)c1`, the GI50 in [1] is 1.76 µM; in [2], 4.59 µM; in experiment [3] it was 1.61 µM; in [5], 1.43 µM; in experiment [6] it was 1.71 µM; in experiment [7] it was 2.01 µM. In addition, the results for the GI50 in experiment [8], in experiment [9] and in [10] were 2.42 µM, 1.85 µM and 1.48 µM, respectively. Further, the concentration for total growth inhibition (TGI) worked out at 3.55 µM in experiment [1]; 15.6 µM in experiment [2]; 3.55 µM in experiment [3]; 12.3 µM in experiment [5]; 4.33 µM in experiment [6]; 4.68 µM in experiment [7]. The values for the TGI in experiment [8], in experiment [9] and in experiment [10] were 8.04 µM, 4.1 µM and 3 µM, respectively.

With `COc1cccc2c1C(=O)c1c(O)c3c(c(O)c1C2=O)C[C@@](O)(C(=O)CO)C[C@@H]3OC1CC(N)CC(C)O1` (stereo partly specified), the GI50 in experiment [1] was 0.106 µM; in experiment [3] it was 0.183 µM and 0.125 µM; in [4], 0.0091 µM and 0.00929 µM and 0.0412 µM; in experiment [5], 0.0175 µM; in experiment [6], 0.0296 µM; in experiment [7], 2.75 µM. Further, the GI50 in [8] was 0.102 µM; in [9], 0.067 µM; in [10], 0.0224 µM and 0.0311 µM. Further, the TGI in [1] is 0.46 µM and 0.215 µM; in [2] it was 0.175 µM and 1.22 µM; in [3] it was 3.57 µM and 2.53 µM; in experiment [4], 0.122 µM and 0.939 µM; in experiment [5] it was 0.326 µM and 0.0977 µM; in experiment [6], 1.1 µM and 0.809 µM. Moreover, the TGI in experiment [7] was 28.2 µM; in experiment [8], 1.11 µM and 1.22 µM; in experiment [9] it was 1.13 µM and 0.696 µM; in experiment [10], 2.2 µM and 0.873 µM.

As for `C=C1C(=O)OC2CC(C)C(C(CC(C)=O)OC(C)=O)=CCC12` (stereo unspecified), the TGI is 15.2 µM in experiment [1]; 30.1 µM in [2]; 7.96 µM in [3]; > 29.3 µM in [4]; 46.9 µM in [5]; 22 µM in experiment [6]. Besides, the TGI was > 45 µM in experiment [7], 20.3 µM in experiment [8], 42 µM in [9] and 29.6 µM in [10].

In the case of `CCOC(=O)C1=CN(C)C=C(C(=O)OCC)C1c1cc(Br)c(OCC)c(OC)c1`, the GI50 in experiment [1] was > 100 µM; in [2], > 100 µM; in [3], > 100 µM; in [4] it was > 100 µM; in experiment [5], > 100 µM; in experiment [6], 34.5 µM. Further, the GI50 was > 100 µM in experiment [7], 48 µM in [8], 23.5 µM in [9] and > 100 µM in experiment [10]. In addition, the TGI in experiment [1], in experiment [2], in experiment [3], in experiment [4], in experiment [5] and in experiment [6] was > 100 µM in each case. Besides, the concentration for total growth inhibition (TGI) in experiment [7], in [8], in experiment [9] and in experiment [10] was > 100 µM in each case.

Turning to `O=C(/C=C/c1ccccc1)CCC1C(=O)c2ccccc2C1=O`, the TGI in experiment [1], in experiment [2], in experiment [3], in [4], in experiment [6] and in experiment [7] was > 100 µM throughout. Besides, the TGI in [8], in experiment [9] and in [10] was > 100 µM each time.

For the compound `CCOC(=O)C(C#N)C1=CC(=O)C(=O)c2ccc(OC)cc21` (stereo unspecified), the TGI in experiment [2] was 38.2 µM; in experiment [3], 59.8 µM; in experiment [4], > 100 µM; in experiment [5] it was 51.7 µM; in experiment [6], 94.2 µM; in [7] it was 51.3 µM. For the same compound, the concentration for total growth inhibition (TGI) in experiment [8] came out at 47.5 µM; in [9] it was 34.5 µM; in experiment [10] it was 72.5 µM.

With `O=C(Nc1ccc2ncccc2c1)Nc1ccc2ncccc2c1`, the concentration for total growth inhibition (TGI) in experiment [1], in [2], in experiment [3], in experiment [5], in experiment [6] and in [7] was > 100 µM each time. The TGI in experiment [8], in experiment [9] and in experiment [10] was > 100 µM each time.

Take `NC(=S)N/N=C(\CC1OC(=O)c2ccccc21)c1ccc(Cl)cc1` (stereo unspecified): the TGI was > 100 µM in experiment [3]; > 100 µM in [4]; 46 µM in experiment [5]; 65.9 µM in experiment [6]; > 100 µM in experiment [8]; 73.6 µM in experiment [10].

On to `c1ccc2cc(-c3cc4ccccc4s3)ccc2c1`, for which the TGI in experiment [3], in experiment [4], in [5], in [6], in experiment [8] and in [10] was > 100 µM in each case.

Turning to `CC(C)C1=CC23CCC4C(C)(C(=O)O)CCCC4(C)C2CC1C1C(=O)N(c2ccc(Cc4ccc(N5C(=O)C6C7CC8C9(C)CCCC(C)(C(=O)O)C9CCC8(C=C7C(C)C)C6C5=O)cc4)cc2)C(=O)C13` (stereo unspecified), the TGI was 25.3 µM in experiment [2]; 24.5 µM in experiment [3]; 63.2 µM in [4]; 25.2 µM in experiment [5]; 8.58 µM in experiment [6]; 22.6 µM in [8]. For the same compound, the TGI in experiment [9] turned out to be 42.6 µM; in experiment [10], 14.4 µM.

One may read the GI50 as the concentration that inhibits growth by half. One may read the TGI as the concentration giving total growth inhibition. Low values mean more potent growth arrest, high ones less potent growth arrest.
